Assay results published in paper PMC8838850, “Synthesis, Antimicrobial, Anti-Virulence and Anticancer Evaluation of New 5(4H)-Oxazolone-Based Sulfonamides” (Molecules, 2022).
≈ marks a conversion by molar mass, not a printed value.

What was measured:
[1] = tested on: Aspergillus niger ATCC 16404; test: MIC by agar dilution (antifungal); assay type: cell-based; conditions: for MIC: ATCC16404, read-out: Minimum inhibitory concentration (MIC)
Method: (§1) The MICs of the synthesized compound were determined by agar dilution method according to the Clinical Laboratory and Standards Institute Guidelines (CLSI, 2015). Briefly, the tested strains were incubated overnight in tryptic soy broth (TSB) (Oxoid, United Kingdom) and then diluted in Muller–Hinton (MH) broth (Oxoid, United Kingdom) to turbidity approximating to the equivalent of 0.5 McFarland standard. The suspensions were further diluted with sterile saline (1:10) and standardized inoculums (approximately 10^4 CFU per spot) were spotted on the surfaces of MH agar (Oxoid, United Kingdom) plates containing different concentrations of tested compounds and a control plate. The MICs were the lowest concentrations that inhibit growth on the plates after incubation at 37 °C for 20 h.

[2] = tested on: Candida albicans ATCC 10231; test: MIC by agar dilution (antifungal); assay type: cell-based; conditions: for MIC: Candida albicans, ATCC10231, Candida albicans ATCC 10231, read-out: Minimum inhibitory concentration (MIC)
Method: as §1

BxPC-3 = test: SRB cellular proliferation assay; assay type: cell-based, human; conditions: Homo sapiens, BxPC-3 cells, mean ± SD (n = 3), read-out: IC50
Method: (§2) The pancreatic human cancer cell lines BxPC-3 and Panc-1, the human hepatocellular carcinoma (HepG-2), and the normal immortalized pancreatic cell line HPDE, that were used in this study, were obtained from the American Type Culture Collection (Rockville, USA). Cell lines were cultured and treated with the tested compounds or dimethyl sulfoxide (DMSO) as previously described. Cells were cultivated in DMEM medium (Invitrogen, Carlsbad, CA, USA), supplemented with streptomycin, penicillin and fetal bovine serum (FCS) (Invitrogen, Carlsbad, CA, USA). The sulforhodamine B (SRB) assay was employed to assess the anti-proliferative effects of tested compounds on cancer cells. Cell lines were incubated and regularly treated with DMSO or increasing doses of tested compounds for 48 h. The cells were fixed with 10% trichloroacetic acid and stained with SRB fluorescent dye for 30 min. Then, the bounded SRB dye to cellular proteins was dissolved in 10 mM Tris base after washing excess dye with 1% acetic acid. The absorbance was measured at 510 nm in a reader (Biotek, Winooski, VT, USA).

Panc-1 = test: SRB cellular proliferation assay; assay type: cell-based, human; conditions: Homo sapiens, Panc-1 cells, mean ± SD (n = 3), read-out: IC50
Method: as §2

HepG-2 = test: SRB cellular proliferation assay; assay type: cell-based, human; conditions: Homo sapiens, HepG2, HepG-2 cells, mean ± SD (n = 3), read-out: IC50
Method: as §2

[3] = tested on: Staphylococcus aureus ATCC 6538; test: MIC by agar dilution; assay type: cell-based; conditions: ATCC6538, 37 °C, 20 h, read-out: Minimum inhibitory concentration (MIC)
Method: as §1

[4] = tested on: Klebsiella pneumoniae ATCC 27736; test: MIC by agar dilution; assay type: cell-based; conditions: ATCC27736, 37 °C, 20 h, read-out: Minimum inhibitory concentration (MIC)
Method: as §1

[5] = tested on: Staphylococcus epidermidis ATCC 12228; test: MIC by agar dilution; assay type: cell-based; conditions: ATCC12228, 37 °C, 20 h, read-out: Minimum inhibitory concentration (MIC)
Method: as §1

[6] = tested on: Escherichia coli ATCC 10536; test: MIC by agar dilution; assay type: cell-based; conditions: ATCC10536, 37 °C, 20 h, read-out: Minimum inhibitory concentration (MIC)
Method: as §1

[7] = tested on: Salmonella typhimurium ATCC 14028; test: MIC by agar dilution; assay type: cell-based; conditions: Salmonella enterica, 37 °C, 20 h, read-out: Minimum inhibitory concentration (MIC)
Method: as §1

[8] = tested on: Micrococcus spp. ATCC 10240; test: MIC by agar dilution; assay type: cell-based; conditions: ATCC10240, 37 °C, 20 h, read-out: Minimum inhibitory concentration (MIC)
Method: as §1

[9] = tested on: Pseudomonas aeruginosae ATCC 47085; test: MIC by agar dilution; assay type: cell-based, Pseudomonas aeruginosa; conditions: ATCC47085, 37 °C, 20 h, read-out: Minimum inhibitory concentration (MIC)
Method: as §1

[10] = tested on: P. aeruginosa ATCC 47,085; test: Biofilm formation assay (crystal violet, light microscopy); assay type: cell-based, Pseudomonas aeruginosa; conditions: sub-MIC, light microscopy image
Method: (§3) Bacterial virulence is regulated via a quorum sensing (QS) system in an inducer/receptor manner. Diminishing bacterial virulence is an advantageous strategy to decrease the development of bacterial resistance. In this direction, anti-virulence and anti-QS activities have been explored in several studies as reviewed. The ability of P. aeruginosa or S. aureus to form biofilms was assayed in the absence or presence of tested compounds at sub-MIC. […] The experiment was conducted in triplicate and a one-way ANOVA test was employed to test the statistical significance using Graphpad Prism 8 software. The results were significant statistically where p values < 0.05. Moreover, microscopic visualization of biofilm under the effect of tested compounds was also performed by light microscopy. Representative images for the inhibitory effects on S. aureus and P. aeruginosa biofilm formation are shown (Figure 3C,D). The microscopic images show a marked reduction in both the thickness of and surface area covered by the biofilms in presence of the tested compound.
(§4) In order to evaluate the ability of the tested compounds to inhibit the biofilm formation, a strong biofilm forming P. aeruginosa ATCC 47,085 [47, 66] and S. aureus ATCC 6538 [67] strains were used. As described earlier, suspensions of tested strains were prepared from overnight cultures in TSB and their optical densities were adjusted to OD600 of 0.4 (1×10^8 CFU/mL). Aliquots of 10 μL of the suspensions were added to 1 mL amounts of fresh TSB with or without sub-MICs of tested compounds. […] The non-adherent cells were removed, the wells were washed with sterile PBS, and left to dry. The attached biofilm forming cells were fixed with methanol for 25 min and stained with 1% crystal violet for 30 min. The excess dye was washed out and the crystal violet staining adhered biofilm forming cells were eluted by glacial acetic acid (33%). The experiment was conducted in triplicate and the absorbance was measured at 590 nm. The absorbances of tested strains treated with different compounds were expressed as mean ± standard error of percentage change from untreated tested strains control. The percentages of biofilm inhibition were calculated employing the following formula: (absorbance of control—absorbance in presence of tested compounds)/absorbance of control.

S. aureus ATCC 6538 = test: as above; assay type: cell-based, Staphylococcus aureus; conditions: sub-MIC, light microscopy image
Method: as §3, §4

Row | Structure (SMILES) | melting point [°C] | MIC [1] [µg/mL] | MIC [2] [µg/mL] | IC50 (BxPC-3) [µg/mL] | IC50 (Panc-1) [µg/mL] | MIC [3] [µg/mL] | MIC [4] [µg/mL] | MIC [5] [µg/mL] | MIC [6] [µg/mL] | MIC [7] [µg/mL] | MIC [8] [µg/mL] | MIC [9] [µg/mL] | Minimum inhibitory concentration (MIC) [1] [µg/mL] | Minimum inhibitory concentration (MIC) ([2]; Candida albicans ATCC 10231) [µg/mL] | IC50 (HepG-2) [µg/mL] | Biofilm formation, microscopic visualization [10] | Biofilm formation, microscopic visualization (S. aureus ATCC 6538)
1 | C[C@@H]1[C@H](O)[C@@H](C)/C=C/C=C/CC/C=C/C=C/C=C/C=C/C(O[C@H]2O[C@H](C)[C@@H](O)[C@H](N)[C@@H]2O)CC2O[C@](O)(CC(O)C(O)CCC(O)CC(O)CC(O)CC(=O)O[C@H]1C)CC(O)C2C(=O)O (stereo partly shown) [Nystatin, reference compound] |  |  |  |  |  |  |  |  |  |  |  |  | 4 (≈ 4.32 µM) | 4 (≈ 4.32 µM) |  |  | 
2 | CC1(C)S[C@@H]2[C@H](NC(=O)[C@H](N)c3ccc(O)cc3)C(=O)N2[C@H]1C(=O)O [Amoxycillin, reference compound] |  |  |  |  |  | 0.5 (≈ 1.37 µM) | 1 (≈ 2.74 µM) | 0.5 (≈ 1.37 µM) | 0.5 (≈ 1.37 µM) | 1 (≈ 2.74 µM) | 0.25 (≈ 0.684 µM) | 2 (≈ 5.47 µM) |  |  |  |  | 
3 | Cc1cc(NS(=O)(=O)c2ccc(N)cc2)no1 [Sulphamethoxazole, reference compound] |  |  |  |  |  | 2 (≈ 7.9 µM) | 2 (≈ 7.9 µM) | 2 (≈ 7.9 µM) | 1 (≈ 3.95 µM) | 2 (≈ 7.9 µM) | 1 (≈ 3.95 µM) | 4 (≈ 15.8 µM) |  |  |  |  | 
4 | COc1cccc2c1C(=O)c1c(O)c3c(c(O)c1C2=O)C[C@@](O)(C(=O)CO)C[C@@H]3O[C@H]1C[C@H](N)[C@H](O)[C@H](C)O1 [Doxorubicin, reference compound] |  |  |  | 7.31 ± 1.12 (≈ 13.4 µM) | 6.9 ± 0.93 (≈ 12.7 µM) |  |  |  |  |  |  |  |  |  | 5.11 ± 0.98 (≈ 9.4 µM) |  | 
5 | CO/N=C(\C(=O)N[C@@H]1C(=O)N2C(C(=O)O)=C(COC(C)=O)CS[C@H]12)c1csc(N)n1 [Cefotaxime, reference compound] |  |  |  |  |  | 0.5 (≈ 1.1 µM) | 0.5 (≈ 1.1 µM) | 0.25 (≈ 0.549 µM) | 0.125 (≈ 0.274 µM) | 1 (≈ 2.2 µM) | 0.25 (≈ 0.549 µM) | 1 (≈ 2.2 µM) |  |  |  |  | 
6 | Cc1ccc(S(=O)(=O)Nc2ccccc2C2=N/C(=C/c3ccc(Cl)cc3)C(=O)O2)cc1 [Compound 9e, (E)-N-(2-(4-(4-Chlorobenzylidene)-5-oxo-4,5-dihydrooxazol-2-yl)phenyl)-4-methylbenzenesulfonamide] | 234 to 236 | 16 (≈ 35.3 µM) | 8 (≈ 17.7 µM) | 13.3 ± 1.57 (≈ 29.3 µM) | 12.2 ± 1.29 (≈ 26.8 µM) | 2 (≈ 4.42 µM) | 2 (≈ 4.42 µM) | 2 (≈ 4.42 µM) | 4 (≈ 8.83 µM) | 4 (≈ 8.83 µM) | 2 (≈ 4.42 µM) | 8 (≈ 17.7 µM) |  |  | 15 ± 2.89 (≈ 33.2 µM) | markedly reduced | markedly reduced

Further lines, with some results ahead:

Row | melting point [°C] | MIC [1] [µg/mL] | MIC [2] [µg/mL] | IC50 (BxPC-3) [µg/mL] | IC50 (Panc-1) [µg/mL] | MIC [3] [µg/mL] | MIC [4] [µg/mL] | MIC [5] [µg/mL] | MIC [6] [µg/mL] | MIC [7] [µg/mL] | MIC [8] [µg/mL] | MIC [9] [µg/mL] | Structure (SMILES) | Minimum inhibitory concentration (MIC) [1] [µg/mL] | Minimum inhibitory concentration (MIC) ([2]; Candida albicans ATCC 10231) [µg/mL] | IC50 (HepG-2) [µg/mL] | Biofilm formation, microscopic visualization [10] | Biofilm formation, microscopic visualization (S. aureus ATCC 6538)
7 | 196 to 198 | > 32 | > 32 | 21.4 ± 2.15 (≈ 50.5 µM) | 16 ± 3.18 (≈ 37.8 µM) | 16 (≈ 37.7 µM) | > 32 | 8 (≈ 18.8 µM) | > 32 | > 32 | 8 (≈ 18.8 µM) | > 32 | Cc1ccc(S(=O)(=O)Nc2ccccc2C2=N/C(=C/c3cccs3)C(=O)O2)cc1 [Compound 9j, (E)-4-Methyl-N-(2-(5-oxo-4-(thiophen-2-ylmethylene)-4,5-dihydrooxazol-2-yl)phenyl)benzenesulfonamide] |  |  | 25.54 ± 0.144 (≈ 60.2 µM) |  | 
8 | 235 to 237 | > 32 | > 32 | 25.7 ± 4.89 (≈ 49 µM) | 29.3 ± 4.23 (≈ 55.8 µM) | 2 (≈ 3.81 µM) | 8 (≈ 15.2 µM) | 2 (≈ 3.81 µM) | 2 (≈ 3.81 µM) | 16 (≈ 30.5 µM) | 2 (≈ 3.81 µM) | 16 (≈ 30.5 µM) | Cc1ccc(S(=O)(=O)Nc2ccccc2C2=N/C(=C/c3ccc(OCc4ccccc4)cc3)C(=O)O2)cc1 [Compound 9g, (E)-N-(2-(4-(4-(Benzyloxy)benzylidene)-5-oxo-4,5-dihydrooxazol-2-yl)phenyl)-4-methylbenzenesulfonamide] |  |  | 32.5 ± 1.45 (≈ 62 µM) |  | 
9 | 230 to 232 | > 32 | > 32 | 18.1 ± 3.56 (≈ 35.5 µM) | 25.3 ± 1.91 (≈ 49.8 µM) | 4 (≈ 7.87 µM) | 16 (≈ 31.5 µM) | 2 (≈ 3.93 µM) | 4 (≈ 7.87 µM) | 16 (≈ 31.5 µM) | 2 (≈ 3.93 µM) | 32 (≈ 62.9 µM) | COc1cc(/C=C2/N=C(c3ccccc3NS(=O)(=O)c3ccc(C)cc3)OC2=O)cc(OC)c1OC [Compound 9d, (E)-4-Methyl-N-(2-(5-oxo-4-(3,4,5-trimethoxybenzylidene)-4,5-dihydrooxazol-2-yl)phenyl)be-nzenesulfonamide] |  |  | 22.7 ± 2.3 (≈ 44.7 µM) |  | 
10 | 191 to 193 | > 32 | > 32 | 21.8 ± 2.98 (≈ 53.4 µM) | 16.1 ± 1.82 (≈ 39.5 µM) | 2 (≈ 4.9 µM) | > 32 | 2 (≈ 4.9 µM) | > 32 | > 32 | 2 (≈ 4.9 µM) | > 32 | Cc1ccc(S(=O)(=O)Nc2ccccc2C2=N/C(=C/c3ccco3)C(=O)O2)cc1 [Compound 9i, (E)-N-(2-(4-(Furan-2-ylmethylene)-5-oxo-4,5-dihydrooxazol-2-yl)phenyl)-4-methylbenzenesulfonamide] |  |  | 27 ± 5.32 (≈ 66.1 µM) |  | 
11 | 220 to 222 | 8 (≈ 16.7 µM) | 4 (≈ 8.36 µM) | 21.5 ± 1.08 (≈ 44.9 µM) | 15.1 ± 4.13 (≈ 31.6 µM) | 8 (≈ 16.7 µM) | 8 (≈ 16.7 µM) | 4 (≈ 8.36 µM) | 4 (≈ 8.36 µM) | 8 (≈ 16.7 µM) | 4 (≈ 8.36 µM) | 16 (≈ 33.4 µM) | COc1ccc(OC)c(/C=C2/N=C(c3ccccc3NS(=O)(=O)c3ccc(C)cc3)OC2=O)c1 [Compound 9c, (E)-N-(2-(4-(2,5-diMethoxybenzylidene)-5-oxo-4,5-dihydrooxazol-2-yl)phenyl)-4-methylbenzenesulfonamide] |  |  | 19.1 ± 3.23 (≈ 39.9 µM) |  | 
